# Measured values reported in patent US11254667B2 (priority 2016, dated 2022).
# Like-named read-outs stand apart in the source and are kept apart here.
# Experiments:
# physchem = conditions: pH 7.4, aqueous buffer, kinetic from dmso stock
# RET = RET (Homo sapiens (Human), UniProt P07949); assay: biochemical; conditions: 10 μM ATP
# in vivo = conditions: NRG/NRGS, mouse, ip, 30 mg/kg
# PDGFRβ = PDGFRβ (Homo sapiens (Human), UniProt P09619); assay: biochemical; conditions: 10 μM ATP
# SRPK1 = SRPK1 (Homo sapiens (Human), UniProt Q96SB4); assay: biochemical
# BLK = BLK (Homo sapiens (Human), UniProt P51451); assay: biochemical; conditions: 10 μM ATP
# Phospho (P)-STAT5 = assay: P-STAT5 AlphaLISA assay in MV4;11 cells; type: cell-based; conditions: Homo sapiens, read-out: IC50 of STAT5 phosphorylation
# MA9-NRas cells = assay: NRAS IC50 (MA9-NRas cells); type: cell-based; conditions: Homo sapiens, read-out: NRAS IC50
# CDK7/cyclin H = CDK7/cyclin H (Homo sapiens (Human), UniProt P50613); assay: biochemical
# IRAK1 [1] = molecular target: T1, IRAK1 (Homo sapiens (Human), UniProt P51617); assay: Kd kinase binding assay IRAK1
# IRAK1 [2] = molecular target: T1, IRAK1; assay: biochemical
# LCK = LCK (Homo sapiens (Human), UniProt P06239); assay: biochemical; conditions: 10-dose IC50 mode, 10 μM ATP
# IRAK4 = IRAK4 (Homo sapiens (Human), UniProt Q9NWZ3); assay: biochemical
# FLT3 (D835Y) = FLT3 (D835Y) (Homo sapiens (Human), UniProt P36888, D835Y); assay: biochemical
# FLT3 phosphorylation = assay: Immunoblot of P-FLT3 in MV4;11 cells; type: cell-based, human; conditions: 50 nM, 24 hours
# FLT3 = FLT3 (Homo sapiens (Human), UniProt P36888); assay: biochemical
# P-IRAK4 = assay: Immunoblot of compensatory P-IRAK4 in FLT3-ITD AML cells; type: cell-based, human; conditions: 50 nM
# [3] = molecular target: Receptor-type tyrosine-protein kinase FLT3 (Homo sapiens, UniProt P36888, ITD); assay: biochemical
# [4] = system: normal cord blood CD34+ cells; assay: Colony formation of normal cord blood CD34+ cells; conditions: 1 μM, 10 days
# IRAK4 phosphorylation = assay: Immunoblot of P-IRAK4 in MDSL cells; type: cell-based, human; conditions: 24 hours
# MDSL cells = assay: CellTiter-Glo growth of MDSL cells; type: cell-based, human; conditions: 72 hours, cell-titer glow
# [5] = NRG/NRGS, mouse, in vivo, ip, 30 mg/kg
# [6] = pH 7.4
# [7] = PAMPA
# [8] = MV4;11 cells, 5 hours, AlphaLISA
# RET, sequence (P07949 29-1114 limits assumed): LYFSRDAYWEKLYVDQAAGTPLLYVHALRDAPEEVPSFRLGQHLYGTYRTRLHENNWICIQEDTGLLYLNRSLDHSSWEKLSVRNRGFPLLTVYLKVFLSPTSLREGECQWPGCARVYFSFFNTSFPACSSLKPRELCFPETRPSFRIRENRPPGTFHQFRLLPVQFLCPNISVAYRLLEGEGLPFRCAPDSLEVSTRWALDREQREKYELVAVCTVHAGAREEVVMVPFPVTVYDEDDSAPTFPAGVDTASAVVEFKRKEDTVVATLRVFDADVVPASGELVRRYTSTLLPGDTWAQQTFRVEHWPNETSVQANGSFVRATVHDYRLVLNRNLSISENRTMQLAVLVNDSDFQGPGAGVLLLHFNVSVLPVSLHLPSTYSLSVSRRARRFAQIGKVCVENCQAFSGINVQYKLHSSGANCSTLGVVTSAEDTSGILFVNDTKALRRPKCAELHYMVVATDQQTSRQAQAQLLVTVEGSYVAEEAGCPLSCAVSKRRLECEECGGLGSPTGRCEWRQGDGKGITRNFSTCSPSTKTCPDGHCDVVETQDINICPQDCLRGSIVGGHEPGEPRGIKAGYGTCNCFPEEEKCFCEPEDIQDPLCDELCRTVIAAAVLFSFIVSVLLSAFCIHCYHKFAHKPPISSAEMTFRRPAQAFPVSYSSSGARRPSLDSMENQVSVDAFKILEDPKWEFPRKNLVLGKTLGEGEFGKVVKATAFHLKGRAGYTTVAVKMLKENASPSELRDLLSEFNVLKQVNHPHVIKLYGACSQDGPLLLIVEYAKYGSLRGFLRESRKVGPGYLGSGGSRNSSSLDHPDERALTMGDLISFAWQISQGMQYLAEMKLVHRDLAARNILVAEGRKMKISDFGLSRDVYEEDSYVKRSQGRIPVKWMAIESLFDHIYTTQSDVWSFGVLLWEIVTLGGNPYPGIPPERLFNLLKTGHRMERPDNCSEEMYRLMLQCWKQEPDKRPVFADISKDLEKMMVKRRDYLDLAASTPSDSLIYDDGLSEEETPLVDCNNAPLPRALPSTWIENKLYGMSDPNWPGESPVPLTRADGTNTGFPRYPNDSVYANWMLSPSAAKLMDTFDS
# PDGFRβ, sequence (P09619 33-1106 limits assumed): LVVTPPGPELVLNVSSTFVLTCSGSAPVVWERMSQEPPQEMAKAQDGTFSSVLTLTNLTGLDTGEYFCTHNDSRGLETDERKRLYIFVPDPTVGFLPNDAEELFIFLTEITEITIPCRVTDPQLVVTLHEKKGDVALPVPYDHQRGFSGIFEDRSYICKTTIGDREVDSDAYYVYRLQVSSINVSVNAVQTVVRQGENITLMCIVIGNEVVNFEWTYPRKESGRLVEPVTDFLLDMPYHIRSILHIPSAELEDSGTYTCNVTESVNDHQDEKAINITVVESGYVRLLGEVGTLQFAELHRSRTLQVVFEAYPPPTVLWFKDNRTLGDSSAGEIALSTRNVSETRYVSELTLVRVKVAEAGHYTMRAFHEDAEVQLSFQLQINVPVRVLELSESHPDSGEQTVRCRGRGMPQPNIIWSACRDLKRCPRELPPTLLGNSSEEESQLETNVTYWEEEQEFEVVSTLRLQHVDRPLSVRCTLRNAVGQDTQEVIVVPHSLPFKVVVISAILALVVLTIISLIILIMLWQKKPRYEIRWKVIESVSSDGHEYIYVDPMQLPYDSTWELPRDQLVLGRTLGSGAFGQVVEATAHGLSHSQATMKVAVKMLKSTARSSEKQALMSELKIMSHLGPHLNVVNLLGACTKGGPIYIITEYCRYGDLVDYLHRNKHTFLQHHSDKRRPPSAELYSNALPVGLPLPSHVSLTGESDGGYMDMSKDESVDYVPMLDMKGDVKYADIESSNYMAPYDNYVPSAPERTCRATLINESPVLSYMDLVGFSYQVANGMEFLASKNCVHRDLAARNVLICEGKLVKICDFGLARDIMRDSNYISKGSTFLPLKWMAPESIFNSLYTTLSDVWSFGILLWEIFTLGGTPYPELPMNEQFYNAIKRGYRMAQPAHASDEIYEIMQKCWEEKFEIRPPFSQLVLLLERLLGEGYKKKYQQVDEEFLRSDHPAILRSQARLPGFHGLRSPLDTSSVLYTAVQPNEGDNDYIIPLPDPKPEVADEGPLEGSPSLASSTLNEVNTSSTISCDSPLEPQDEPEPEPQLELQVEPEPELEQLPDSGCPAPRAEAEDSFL
smiles,measurement,setting,value
"Clc1ccc2ncc(-c3cccc(NC4CCNCC4)n3)n2c1 [Compound I-2, 6-(6-chloroimidazo[1,2-a]pyridin-3-yl)-N-(piperidin-4-yl)pyridin-2-amine]",solubility,physchem,> 48 µg/mL
same,solubility kinetic,physchem,> 48 µM
same,IC50,RET; IC50 RET,0.6 nM
same,IC50,"RET; IC50 RET, 10-dose IC50 mode",1280 nM
same,AUC(0-inf),in vivo,4630 ng·h/mL
same,Cmax,in vivo,1710 ng/mL
same,Tmax,in vivo,30 min
same,half-life,in vivo,198 min
same,IC50,"PDGFRβ; IC50 PDGFRb, 10-dose IC50 mode",3.57 nM
same,IC50,PDGFRβ; IC50 PDGFRβ,4.19 nM
same,IC50,SRPK1,> 10000 nM
same,Stability,rat,>30.0 min
"Clc1ccc2ncc(-c3cccc(NC4CNC4)n3)n2c1 [Compound I-15, N-(azetidin-3-yl)-6-(6-chloroimidazo[1,2-a]pyridin-3-yl)pyridin-2-amine]",solubility,physchem,> 44 µg/mL
same,IC50,Phospho (P)-STAT5; [8],1.7 nM
same,IC50,MA9-NRas cells,16600 nM
same,Stability,,13 min
"Clc1ccc2ncc(-c3cccc(NC4CCCNC4)n3)n2c1 (stereo not drawn) [Compound I-17, 6-(6-chloroimidazo[1,2-a]pyridin-3-yl)-N-(piperidin-3-yl)pyridin-2-amine]",IC50,CDK7/cyclin H,588 nM
same,Kd,IRAK1 [1],150 nM
same,solubility,physchem,> 48 µg/mL
same,IC50,"RET; IC50 RET, 10-dose IC50 mode",10.5 nM
same,IC50,IRAK1 [2]; read-out: IC50 IRAK1,1480 nM
same,IC50,"PDGFRβ; IC50 PDGFRb, 10-dose IC50 mode",67 nM
same,IC50,SRPK1,7670 nM
same,IC50,LCK,167 nM
same,IC50,"BLK; IC50 BLK, 10-dose IC50 mode",40.7 nM
same,Stability,rat,>30.0 min
"COc1cc2ncc(-c3cccc(NC4CCNC4)n3)n2cc1-c1cn[nH]c1 (stereo not drawn) [Compound I-20, 6-(7-methoxy-6-(1H-pyrazol-4-yl)imidazo[1,2-a]pyridin-3-yl)-N-(pyrrolidin-3-yl)pyridin-2-amine]",IC50,CDK7/cyclin H,116 nM
same,IC50,IRAK4,< 0.508 nM
same,IC50,FLT3 (D835Y),< 0.508 nM
same,solubility,physchem,4.5 µg/mL
same,IC50,"RET; IC50 RET, 10-dose IC50 mode",< 0.508 nM
same,FLT3 phosphorylation (immunoblot),FLT3 phosphorylation,inhibited FLT3 phosphorylation comparably to AC220
same,IC50,FLT3,< 0.508 nM
same,compensatory phosphorylation of IRAK4 (immunoblot),P-IRAK4,did not result in compensatory phosphorylation of IRAK4
same,IC50,"IRAK1 [2]; IC50 IRAK1, 10-dose IC50 mode, 10 μM ATP",5.34 nM
same,IC50,"Phospho (P)-STAT5; MV4-11, 5 h",3.6 nM
same,IC50,MA9-NRas cells,33200 nM
same,IC50,"PDGFRβ; IC50 PDGFRb, 10-dose IC50 mode",1.25 nM
same,IC50,SRPK1,> 10000 nM
same,IC50,LCK,< 0.508 nM
same,IC50,"BLK; IC50 BLK, 10-dose IC50 mode",< 0.508 nM
same,Stability,rat,11.6 min
same,IC50,[3],< 0.508 nM
"COc1cc2ncc(-c3cccc(NC4CCNC4)n3)n2cc1-c1cnn(C)c1 (stereo not drawn) [Compound I-24, 6-(7-methoxy-6-(1-methyl-1H-pyrazol-4-yl)imidazo[1,2-a]pyridin-3-yl)-N-(pyrrolidin-3-yl)pyridin-2-amine]",Kd,IRAK1 [1],2.9 nM
same,FLT3 phosphorylation (immunoblot),FLT3 phosphorylation,inhibited FLT3 phosphorylation comparably to AC220
same,colony formation of normal CD34+ cells,[4],inhibited colony formation
same,AUC(0-inf),in vivo,6800 ng·h/mL
same,Cmax,in vivo,3570 ng/mL
same,Tmax,in vivo,4.98 min
same,IRAK4 phosphorylation (immunoblot),IRAK4 phosphorylation,effectively inhibited pIRAK4
same,MDSL growth inhibition compared to IRAK-Inh,MDSL cells,increased ability to inhibit MDSL growth
same,AUCinf.,[5],"6,800 hr*ng/mL"
c1cc(N[C@@H]2CCNC2)nc(-c2cnc3ccc(-c4cn[nH]c4)cn23)c1 [Compound I-43],solubility,physchem,40.1 µg/mL
same,IC50,Phospho (P)-STAT5; [8],6.6 nM
same,Stability,,5.7 min
"Fc1cc(F)c(-c2cnc3ccc(Cl)cn23)nc1NC1CNC1 [Compound I-56, N-(azetidin-3-yl)-6-(6-chloroimidazo[1,2-a]pyridin-3-yl)-3,5-difluoropyridin-2-amine]",solubility,[6],>50.0 µg/mL
same,Permeability,[7],1164.1 ×10⁻⁶ cm/s
"CC1(COc2ccc3c(c2)ncn3-c2ccc3cccc(N4CCC(N)CC4)c3n2)COC1 [Crenolinib, reference compound]",IC50,"RET; 10-dose IC50 mode, read-out: IC50 RET",13.8 nM
same,IC50,"SRPK1; 10-dose IC50 mode, 10 μM ATP, read-out: IC50 SRPK1",21700 nM
same,IC50,"BLK; 10-dose IC50 mode, read-out: IC50 BLK",20.7 nM
"CC(C)(C)c1cc(NC(=O)Nc2ccc(-c3cn4c(n3)sc3cc(OCCN5CCOCC5)ccc34)cc2)no1 [quizartinib, reference compound]",IC50,"Phospho (P)-STAT5; MV4-11, 5 h",11.7 nM
